Measurements: patent publication US5298494A, “Monosaccharides having anti-proliferation and anti-inflammatory activity, compositions and uses thereof” (Greenwich Pharmaceuticals Incorporated, priority 1993, dated 1994)

Experiments:
[1] = system: PGE2 production by BUD-8 skin cell fibroblasts; experiment: PGE2 production by BUD-8 skin cell fibroblasts (radioimmunoassay); format: cell-based, human
Procedure: (§1) The effect of the compound of the present invention on the proliferative capacity of human BUD-8 skin fibroblasts was measured with the use of a ^3 H-thymidine incorporation assay using culture conditions which were similar to those used for a Con-A blastogenesis assay, described previously. Cultured skin cells were detached from the surface of tissue culture flasks mechanically with a Teflon scraper. The cells were washed, resuspended in incubation medium and the viabilities were determined. These cells were then plated in triplicate at a density of 2×10^3 cells/0.1 ml/microtiter well for the proliferation assay and a density of 1×10^4 cells/0.1 ml/microtiter well for the assays to quantitate PGE2 and LTB4. To these cells was added incubation medium containing indomethacin to inhibit prostaglandin production, or nordihydroguaiaretic acid (NDGA) to inhibit leukotriene production (positive controls).
(§2) After 18 hours of culture, samples of the BUD-8 skin cell supernatants were collected from one set of microtiter plates and frozen until assayed for PGE2 or for LTB4 content using the radioimmunoassays described below.
A radioinmunoassay (New England Nuclear) was used to quantitate PGE2 levels in BUD-8 skin cell culture supernatants. Briefly, into each polypropylene tube were mixed 0.1 ml anti-PGE2, 0.1 ml ^125 1-PGE2 and 0.1 ml PGE2 standard or PGE2 containing sample. The BUD-8 skin culture supernatants were diluted 1:2 prior to addition to the radioimmunoassay. Tubes were refrigerated overnight. A polyethylene glycol solution (16%, 6,000 m.w.) was then added to precipitate immune complexes and the radioactivity in the precipitate was counted in a gamma counter.

[2] = system: LTB4 production by BUD-8 skin cell fibroblasts; experiment: LTB4 production by BUD-8 skin cell fibroblasts (radioimmunoassay); format: cell-based, human
Procedure: as §1, §2
Levels of LTB4 in aliquots of BUD-8 skin cell cultures supernatants were quantitated by radioimmunoassay (New England Nuclear). Briefly, into each polyproplyene tube were mixed 0.1 ml anti-LTB4, 0.1. ml ^3 H-LTB4 and 0.1 ml LTB4 standard or LTB4 containing sample. The BUD-8 skin cell culture supernatants were used directly in the radioimmunoassay. Tubes were refrigerated overnight. A charcoal solution (0.5 ml of 0.5% charcoal Norit A) was added and each tube was centrifuged. The radioactivity in the supernatant was then counted in a liquid scintillation counter.

[3] = system: BUD-8 human skin fibroblasts; experiment: Fibroblast assay: proliferation of BUD-8 skin cell fibroblasts; format: cell-based
Procedure: The human skin cell fibroblast line, BUD-8 was obtained prior to each assay from the American Type Culture Collection. This is a fibroblast-like cell line which was originally derived from the normal skin of a person.
(§3) BUD-8 cell cultures were expanded for use in 25 cm^2 flasks at 37° C. in an atmosphere of 5% CO2 in air. At approximately 4-5 five day intervals, or when confluence was reached, the cells were passaged. This was accomplished by detaching the cells with a Teflon scraper, washing and reseeding the cells at a lower density into fresh tissue culture flasks.
as §1
After 3 days of culture, 1 uCi ^3 H-thymidine was added in a 50 ul volume to each culture well of the microtiter plates. Eighteen hours later, each of the BUD-8 cultures was examined morphologically for evidence of compound-induced toxicity such as cell rounding or granularity. The thymidine-pulsed cells were then precipitated and the amount of ^3 H-thymidine incorporated was counted in a liquid scintillation counter.
The concentrations of the compounds of the invention which were used in these assays were:
The incubation medium used for culturing the BUD-8 cells was RPMI-1640 medium containing 10% fetal bovine serum, 100 ug/ml streptomycin, 100 U/ml penicillin, 0.2M Hepes buffer solution, 5×10^-5 M 2-mercaptoethanol and 2 mM glutamine.

[4] = system: GS-109-V-20 human skin cell fibroblasts; experiment: Fibroblast assay: proliferation of GS-109-V-20 skin cell fibroblasts; format: cell-based; conditions: 2 × 10^-6 M Indomethacin; 2 × 10^-6 N NDGA
Procedure: The effect of methyl 3-O-3'-(N',N'-dimethylamino-n-propyl)-6-deoxy-D-glucopyranoside on the proliferative capacity of human GS-109-V-20 skin fibroblasts was measured with the use of ^3 H-thymidine incorporation assay. Cultured skin cells were detached from the surface of tissue culture flasks mechanically with a Teflon scraper. The cells were washed, resuspended in incubation medium and the viabilities determined. These cells were then plated in triplicate at a density of 1×10^3 cells/0.1 ml/microtiter well. To these cells was added 0.1 ml incubation medium containing the methyl 3-O-3'-(N',N'-dimethylamino-n-propyl)-6-deoxy-D-glucopyranoside compound.
After 3 days of culture, 1#uCi ^3 H-thymidine was added in 50 ul volume to each culture well of the microtiter plates. Eighteen hours later, each of the GS-109-V-20 cultures was examined morphologically for evidence of drug-induced toxicity such as cell rounding or granularity. The ^3 H-thymidine-pulsed cells were then precipitated and the amount of ^3 H-thymidine incorporation was counted on a liquid scintillation counter.
Methyl 3-O-3'-(N',N'-dimethylamino-n-propyl)-6-deoxy-D-glucopyranoside was suspended directly into the medium by extensive sonication, without being filter-sterilized. A range of doses of this compound was used to measure effects of this compound upon GS-109-V-20 cell proliferation. The following doses were used:
The human skin cell fibroblast line, GS-109-V-20, was obtained from the American Type Culture-Collection. […] These cells were selected for use because they are considered to exist in an initiated state, as opposed to being normal or transformed, and have a more extensive population doubling time and survival period in culture than do normal fibroblasts. In this regard, they would more closely reflect the biological characteristics of psoriatic or rheumatoid synovial fibroblasts which also proliferate more extensively than do normal fibroblasts, but not as extensively as immortalized transformed tumor cells.
as §3, with “The number of GS-109-V-20 cells was” for “BUD-8 cell cultures were”, “use in the described assays by culture” for “use”, “4-5” for “4-5 five”, “by trypsinization,” for “with a Teflon scraper,”

[5] = system: T lymphocytes (normal mouse spleen cells) stimulated with ConA; experiment: Mouse Spleen Cell ConA Blastogenesis Assay; format: cell-based, mouse (C57Bl/6); conditions: control compound, concentration not given
[6] = concentration not given, 1080 min

SMILES: CC(Cc1ccc(O)c(O)c1)C(C)Cc1ccc(O)c(O)c1 (stereo not drawn) [NDGA, nordihydroguaiaretic acid, reference compound]
- PGE2 in supernatant (positive control) ([1]; concentration not given): 14.7 ± 0.8 pg PGE2 /50 ul supernatant
- calculated PGE2 production/10^5 BUD-8 cells (positive control) ([1]; concentration not given): 933 pg per 10^5 cells
- % effect on PGE2 production (positive control) [1, 6]: -8%
- LTB4 in supernatant (positive control) ([2]; concentration not given): 19.9 ± 1.5 pg LTB4 100 ul supernatant
- calculated LTB4 production/10^5 BUD-8 cells (positive control) ([2]; concentration not given): 794 pg per 10^5 cells
- % effect on LTB4 production (positive control) [2, 6]: -45%
- % effect on BUD-8 proliferation (positive control) ([3]; concentration not given): -5%
- ^3 H-Thymidine uptake by BUD-8 skin cells (positive control) ([3]; concentration not given): 6,925 ± 313 cpm
- ^3 H-Thymidine uptake by GS-109-V-20 skin cells (control compound) [4]: 3,179 ± 489 cpm
- % effect on ConA blastogenic response (positive control) ([5]; ConA 1 ug/ml): -14%
- Blastogenic response of normal spleen cells to Con-A (positive control) ([5]; ConA 1 ug/ml): 47.6 ± 5.0 × 10^-3 cpm
- % effect on ConA blastogenic response (positive control) ([5]; ConA 4 ug/ml): -24%
- Blastogenic response of normal spleen cells to Con-A (positive control) ([5]; ConA 4 ug/ml): 64.1 ± 9.2 × 10^-3 cpm

SMILES: CC1(C)OC2OC3C(O)COC3(O)C2O1 [IV, (3S) 1,2-O-isopropylidene-α-D-ribo-hexos-3-ulose-1,4:3,6-difuranose]
- effect on PGE2 production in words [1]: significantly decrease of levels of both pro-inflammatory mediators are seen at several non-toxic doses
- PGE2 in supernatant ([1]; 1 ug/ml): 7.1 ± 1.0 pg PGE2 /50 ul supernatant
- calculated PGE2 produced/10^5 BUD-8 cells ([1]; 1 ug/ml): 336 pg per 10^5 cells
- PGE2 in supernatant ([1]; 10 ug/ml): 7.5 ± 0.9 pg PGE2 /50 ul supernatant
- calculated PGE2 produced/10^5 BUD-8 cells ([1]; 25 ug/ml): 366 pg per 10^5 cells
- PGE2 in supernatant ([1]; 100 ug/ml): 13.6 ± 4.4 pg PGE2 /50 ul supernatant
- calculated PGE2 produced/10^5 BUD-8 cells ([1]; 100 ug/ml): 850 pg per 10^5 cells
- PGE2 in supernatant ([1]; 300 ug/ml): 23.7 ± 1.5 pg PGE2 /50 ul supernatant
- calculated PGE2 produced/10^5 BUD-8 cells ([1]; 300 ug/ml): 1654 pg per 10^5 cells
- PGE2 in supernatant ([1]; 750 ug/ml): 4.0 ± 0.5 pg PGE2 /50 ul supernatant
- calculated PGE2 produced/10^5 BUD-8 cells ([1]; 750 ug/ml): 82 pg per 10^5 cells
- inhibition at 1 µg/mL ([1]; Homo sapiens, Fibroblast, 18 h, 1 ug/ml, read-out: % Effect on PGE2 production): 51%
- inhibition at 10 µg/mL ([1]; Homo sapiens, Fibroblast, 18 h, 10 ug/ml, read-out: % Effect on PGE2 production): 52%
- inhibition at 25 µg/mL ([1]; Homo sapiens, Fibroblast, 18 h, 25 ug/ml, read-out: % Effect on PGE2 production): 52%
- inhibition at 100 µg/mL ([1]; Homo sapiens, Fibroblast, 18 h, 100 ug/ml, read-out: % Effect on PGE2 production): 59%
- inhibition at 300 µg/mL ([1]; Homo sapiens, Fibroblast, 18 h, 300 ug/ml, read-out: % Effect on PGE2 production): 67%
- inhibition at 750 µg/mL ([1]; Homo sapiens, Fibroblast, 18 h, 750 ug/ml, read-out: % Effect on PGE2 production): 65%
- effect on LTB4 production in words [2]: significantly decrease of levels of both pro-inflammatory mediators are seen at several non-toxic doses
- LTB4 in supernatant (Table XXI) ([2]; 1 ug/ml): 36.4 ± 5.2 pg LTB4 100 ul supernatant
- calculated LTB4 produced/10^5 BUD-8 cells ([2]; 1 ug/ml): 1,621 pg per 10^5 cells
- LTB4 in supernatant (Table XXI) ([2]; 10 ug/ml): 19.9 ± 3.8 pg LTB4 100 ul supernatant
- LTB4 in supernatant (Table XXI) ([2]; 25 ug/ml): 17.7 ± 3.8 pg LTB4 100 ul supernatant
- calculated LTB4 produced/10^5 BUD-8 cells ([2]; 25 ug/ml): 683 pg per 10^5 cells
- LTB4 in supernatant (Table XXI) ([2]; 100 ug/ml): 17.3 ± 0.9 pg LTB4 100 ul supernatant
- calculated LTB4 produced/10^5 BUD-8 cells ([2]; 100 ug/ml): 665 pg per 10^5 cells
- LTB4 in supernatant (Table XXI) ([2]; 300 ug/ml): 25.7 ± 5.0 pg LTB4 100 ul supernatant
- calculated LTB4 produced/10^5 BUD-8 cells ([2]; 300 ug/ml): 1,083 pg per 10^5 cells
- LTB4 in supernatant (Table XXI) ([2]; 750 ug/ml): 23.5 ± 0.2 pg LTB4 100 ul supernatant
- calculated LTB4 produced/10^5 BUD-8 cells ([2]; 750 ug/ml): 973 pg per 10^5 cells
- inhibition at 1 µg/mL ([2]; Homo sapiens, Fibroblast, 18 h, 1 ug/ml, read-out: % Effect on LTB4 production): -2%
- inhibition at 10 µg/mL ([2]; Homo sapiens, Fibroblast, 18 h, 10 ug/ml, read-out: % Effect on LTB4 production): 45%
- inhibition at 25 µg/mL ([2]; Homo sapiens, Fibroblast, 18 h, 25 ug/ml, read-out: % Effect on LTB4 production): 51%
- inhibition at 100 µg/mL ([2]; Homo sapiens, Fibroblast, 18 h, 100 ug/ml, read-out: % Effect on LTB4 production): 52%
- inhibition at 300 µg/mL ([2]; Homo sapiens, Fibroblast, 18 h, 300 ug/ml, read-out: % Effect on LTB4 production): 28%
- inhibition at 750 µg/mL ([2]; Homo sapiens, Fibroblast, 18 h, 750 ug/ml, read-out: % Effect on LTB4 production): 35%
- ^3 H-Thymidine uptake by BUD-8 skin cells ([3]; 1 ug/ml): 3,607 ± 87 cpm
- ^3 H-Thymidine uptake by BUD-8 skin cells ([3]; 10 ug/ml): 4,077 ± 374 cpm
- ^3 H-Thymidine uptake by BUD-8 skin cells ([3]; 25 ug/ml): 3,791 ± 451 cpm
- ^3 H-Thymidine uptake by BUD-8 skin cells ([3]; 100 ug/ml): 4,032 ± 3 cpm
- ^3 H-Thymidine uptake by BUD-8 skin cells ([3]; 300 ug/ml): 2,882 ± 387 cpm
- ^3 H-Thymidine uptake by BUD-8 skin cells ([3]; 750 ug/ml): 2,658 ± 247 cpm
- inhibition at 1 µg/mL ([3]; Homo sapiens, Skin fibroblast, 1 ug/ml, read-out: % Effect on BUD-8 proliferation): 51%
- inhibition at 10 µg/mL ([3]; Homo sapiens, Skin fibroblast, 10 ug/ml, read-out: % Effect on BUD-8 proliferation): 44%
- inhibition at 25 µg/mL ([3]; Homo sapiens, Skin fibroblast, 25 ug/ml, read-out: % Effect on BUD-8 proliferation): 48%
- inhibition at 100 µg/mL ([3]; Homo sapiens, Skin fibroblast, 100 ug/ml, read-out: % Effect on BUD-8 proliferation): 45%
- inhibition at 300 µg/mL ([3]; Homo sapiens, Skin fibroblast, 300 ug/ml, read-out: % Effect on BUD-8 proliferation): 61%
- inhibition at 750 µg/mL ([3]; Homo sapiens, Skin fibroblast, 750 ug/ml, read-out: % Effect on BUD-8 proliferation): 64%
